# Laboratory results published in article PMC10529921, “Structure–Activity Relationship of Novel ACE Inhibitory Undecapeptides from Stropharia rugosoannulata by Molecular Interactions and Activity Analyses” (Foods, 2023).
# Where a name gives a salt, the structure may show the parent alone.
# Legend:
# SHR rats [1] = assay: Organ coefficients in SHR rats; format: in vivo, rat (SHR); settings: 10 mg/kg, single gavage
# Description: (§1) Eleven-week-old male SHR rats and Wistar rats (SiPeiFu (Suzhou) Biotechnology Co., Ltd., Suzhou, China) weighing 200–250 g were used. After 7 d of acclimatization feeding, SHR rats and Wistar rats were randomly grouped into 6 rats per group for a single gavage administration treatment. The undecapeptide and the commercial antihypertensive drug Benazepril hydrochloride were administered in a gavage dose of 10 mg/kg body weight (the recommended dose of Benazepril hydrochloride). SHR rats with regular saline treatment were used as the blank control group. The systolic blood pressure (SBP) and diastolic blood pressure (DBP) of rats were monitored by the Softron BP system (Softron BP-2010A, Tokyo, Japan) at 0, 2, 4, 6, 8, and 24 h after drug administration. At the end of the treatment, the organ coefficients were calculated (organ weight as a percentage of the body weight of the rat, mg/g).
# (§2) Data from the in vivo tests were presented as means ± standard deviations of 6 measurements.
# Wistar rats = settings: 10 mg/kg, single gavage; low body weight in two rats given as main reason
# Description: as §1, §2
# SHR rats [2] = assay: Antihypertensive effect after single gavage in SHR rats; format: in vivo, rat (SHR); settings: n = 6
# Description: as §1, §2
# [3] = 10 mg/kg, most significant effect at 8 h, mean ± SD
Structure (SMILES),"Effect on organs, SHR (SHR rats [1])","Heart organ coefficient vs blank control, SHR (SHR rats [1]; significance p < 0.05)","Kidney organ coefficient, Wistar (Wistar rats)","Blood pressure lowering (SBP and DBP), SHR (SHR rats [2]; 10 mg/kg, 2, 4, 6 and 8 h)","Decrease in DBP, SHR (SHR rats [2]; [3]) [mmHg]","Decrease in SBP, SHR (SHR rats [2]; [3]) [mmHg]","Rebound of blood pressure values, SHR (SHR rats [2]; 10 mg/kg)","Time of most significant blood pressure lowering effect, SHR (SHR rats [2]; 10 mg/kg) [h]"
CC(C)C[C@H](NC(=O)[C@@H]1CCCN1C(=O)[C@H](CCCNC(=N)N)NC(=O)[C@H](CC(C)C)NC(=O)[C@H](CCCNC(=N)N)NC(=O)[C@H](CC(=O)O)NC(=O)[C@H](Cc1ccc(O)cc1)NC(=O)[C@H](CC(=O)O)NC(=O)[C@H](CCC(=O)O)NC(=O)[C@H](CCC(N)=O)NC(=O)CN)C(=O)O,less impact on the organs of SHR rats,no significant difference,considerably higher,,,,,
CCOC(=O)[C@H](CCc1ccccc1)N[C@H]1CCc2ccccc2N(CC(=O)O)C1=O [Benazepril hydrochloride],,,,"better blood pressure lowering effects after 2, 4, 6, and 8 h",39.17 ± 1.81,54.94 ± 1.79,began to rebound after 8 h,8
